# Laboratory results from article PMC8245553, “Identification of natural product modulators of Merkel cell carcinoma cell growth and survival” (Scientific Reports, 2021).
# Tested on: MKL-1 (VP-MCC) cells
# Experiment: Differential growth inhibition/cytotoxicity assay (CellTiterGlo/XTT), MKL-1
# Conditions: Homo sapiens, MKL-1, 72 h, read-out: IC50 (ave ± sd)
smiles,measurement,value
CC1(C)CCC(c2ccc(Cl)cc2)=C(CN2CCN(c3ccc(C(=O)NS(=O)(=O)c4ccc(N[C@H](CCN5CCOCC5)CSc5ccccc5)c(S(=O)(=O)C(F)(F)F)c4)cc3)CC2)C1 [Navitoclax],IC50,200 ± 29 nM
